Test results from patent publication US20200333324A1, “METHOD OF PREDICTING CLINICAL OUTCOME OF ANTICANCER AGENTS” (MITRA RXDX, INC., priority 2017, published 2020).

What was measured:
Format in all cases: cell-based, human
[1] = system: HNSCC tumor tissue; assay: IHC for CD8, PD-L1, PD-1 and FOXP3 positive cells in tumor microenvironment platform; conditions: T3; for number of PD-1^+ cells in the tumor microbed: vs IgG control
Procedure: The effect of Pembrolizumab and Nivolumab on CD8^+ T cell tumor infiltration was then evaluated. Tumor sections from the same patient cultured for 72 hours in the tumor microenvironment platform were treated with Pembrolizumab, Nivolumab, or IgG as control and stained for H&E, Ki67, Caspase 3, and CD8 at day 3 in culture (T3). Baseline staining was determined at TO. […] To further elucidate the effects of the anti-PD-1 antibodies, FACS analysis was performed on tumor tissue from patient 2941 and patient 2942 treated with either Pembrolizumab, Nivolumab, or IgG control. […] By contrast, there was no effect of either Pembrolizumab or Nivolumab on CD8^+ T cell infiltration for patient 2942, further highlighting the differential response between individuals to PD-1 blockade. CD8^+ T cell infiltration was evaluated in the tumor microenvironment platform with tumor tissue from the same patient, and comparisons for control vs Nivo, control vs Pembro, Nivo vs Pembro, and control vs Nivo vs Pembro for multiple patients are shown in FIG. 6 (each line represents results from the tumor microenvironment platform cultured with tumor tissue from a single individual).
The effect of Pembrolizumab and Nivolumab on the expression of immunoregulatory molecules, including PD-1 and FOXP3, in the tumor microenvironment platform tumor microbed was evaluated. Tumor sections from the same patient cultured for 3 days (72 hours) in the tumor microenvironment platform were treated with Pembrolizumab, Nivolumab, or IgG control and stained for CD8, FOXP3, and PD-1 at day 3 in culture (T3). Baseline staining was determined at TO. Results are shown in FIG. 7A for tumor sections from a predicted responder to Pembrolizumab or Nivolumab and FIG. 7B for a predicted non-responder to Pembrolizumab or Nivolumab, as characterized by M-score. There was in increase in the number of PD-1^+ cells in the tumor microbed for both Pembrolizumab and Nivolumab, which was to a greater degree in the case of Nivolumab, when compared to IgG control in the responder (FIG. 7A). There was no change for either Pembrolizumab and Nivolumab in the non-responder (FIG. 7B). The numbers of PD-L1^+ tumor cells, PD-1^+ T cells, FOXP3^+ T-regulatory cells, and CD8^+ T cells were evaluated using the tumor microenvironment platform with tumor tissue from the same patient in Nivolumab, Pembrolizumab, and control conditions, and are summarized in Table 3. Comparisons for control vs Nivo, control vs Pembro, Nivo vs Pembro, and control vs Nivo vs Pembro for multiple patients are shown in FIG. 8 (each line represents results from the tumor microenvironment platform cultured with tumor tissue from a single individual).

[2] = system: HNSCC tumor tissue; assay: M-score clinical outcome predictor: tumor microenvironment platform assays (WST-1, LDH, ATP, glucose uptake, Caspase 3/8, Ki67, H&E) input into machine-trained algorithm; design: scale not given here
[3] = system: HNSCC tumor tissue; assay: as above; design: scale not given here; remark: listed apart in the source
Source text: Utilizing primary and late stage HNSCC patient samples (n=16) we interrogated phenotypic response to both Pembrolizumab (KEYTRUDA) and Nivolumab (OPDIVO), two FDA-approved PD-1 inhibitors, as single agents on the tumor microenvironment platform with tumor tissue from the same patient. To do this, we assayed tumor proliferation (Ki67) and apoptosis (active caspase-3), in addition to using a comprehensive panel of immunological assays to evaluate changes in the immune compartment (CD8, CD45, FOXP3, CXCR4, CD68, PDL1, PD1) and cytokine profile (IL6, IL8, IFN-g and IL12).

Substance: Pembrolizumab
- # cells/field PD-1^+ ([1]; Patient ID 2916, control 0): 0 cells/field
- # cells/field PD-L1^+ ([1]; Patient ID 2916, control 1): 2 cells/field
- # cells/field FOXP3^+ ([1]; Patient ID 2916, control 3): 2 cells/field
- # cells/field CD8^+ ([1]; Patient ID 2916, control 20): 18 cells/field
- # cells/field PD-1^+ ([1]; Patient ID 2918, control 2): 0 cells/field
- # cells/field FOXP3^+ ([1]; Patient ID 2918, control 3): 3 cells/field
- # cells/field CD8^+ ([1]; Patient ID 2918, control 10): 14 cells/field
- # cells/field PD-L1^+ ([1]; Patient ID 2918, control 10): 10 cells/field
- # cells/field PD-1^+ ([1]; Patient ID 2926, control 0): 0 cells/field
- # cells/field PD-L1^+ ([1]; Patient ID 2926, control 3): 1 cells/field
- # cells/field FOXP3^+ ([1]; Patient ID 2926, control 4): 10 cells/field
- # cells/field CD8^+ ([1]; Patient ID 2926, control 25): 5 cells/field
- # cells/field PD-1^+ ([1]; Patient ID 2928, control 0): 0 cells/field
- # cells/field PD-L1^+ ([1]; Patient ID 2928, control 0): 1 cells/field
- # cells/field CD8^+ ([1]; Patient ID 2928, control 4): 1 cells/field
- # cells/field FOXP3^+ ([1]; Patient ID 2928, control 4): 1 cells/field
- # cells/field CD8^+ ([1]; Patient ID 2939, control 0): 5 cells/field
- # cells/field PD-1^+ ([1]; Patient ID 2939, control 0): 0 cells/field
- # cells/field FOXP3^+ ([1]; Patient ID 2939, control 1): 1 cells/field
- # cells/field PD-L1^+ ([1]; Patient ID 2939, control 10): 15 cells/field
- # cells/field PD-1^+ ([1]; Patient ID 2941, control 0): 1 cells/field
- # cells/field FOXP3^+ ([1]; Patient ID 2941, control 3): 4 cells/field
- # cells/field PD-L1^+ ([1]; Patient ID 2941, control 3): 6 cells/field
- # cells/field CD8^+ ([1]; Patient ID 2941, control 5): 7 cells/field
- # cells/field PD-1^+ ([1]; Patient ID 2942, control 0): 0 cells/field
- # cells/field PD-L1^+ ([1]; Patient ID 2942, control 0): 0 cells/field
- # cells/field CD8^+ ([1]; Patient ID 2942, control 3): 2 cells/field
- # cells/field FOXP3^+ ([1]; Patient ID 2942, control 3): 2 cells/field
- # cells/field FOXP3^+ ([1]; Patient ID 2948, control 1): 3 cells/field
- # cells/field PD-1^+ ([1]; Patient ID 2948, control 1): 0 cells/field
- # cells/field PD-L1^+ ([1]; Patient ID 2948, control 10): 1 cells/field
- # cells/field CD8^+ ([1]; Patient ID 2948, control 20): 25 cells/field
- # cells/field PD-1^+ ([1]; Patient ID 2949, control 1): 6 cells/field
- # cells/field FOXP3^+ ([1]; Patient ID 2949, control 5): 3 cells/field
- # cells/field PD-L1^+ ([1]; Patient ID 2949, control 20): 28 cells/field
- # cells/field CD8^+ ([1]; Patient ID 2949, control 50): 40 cells/field
- # cells/field PD-1^+ ([1]; Patient ID 2956, control 0): 0 cells/field
- # cells/field CD8^+ ([1]; Patient ID 2956, control 1): 1 cells/field
- # cells/field PD-L1^+ ([1]; Patient ID 2956, control 2): 0 cells/field
- # cells/field FOXP3^+ ([1]; Patient ID 2956, control 8): 1 cells/field
- # cells/field PD-1^+ ([1]; Patient ID 2963, control 0): 0 cells/field
- # cells/field CD8^+ ([1]; Patient ID 2963, control 6): 2 cells/field
- # cells/field FOXP3^+ ([1]; Patient ID 2963, control 10): 2 cells/field
- # cells/field PD-L1^+ ([1]; Patient ID 2963, control 12): 10 cells/field
- # cells/field PD-1^+ ([1]; Patient ID 2978, control 0): 0 cells/field
- # cells/field FOXP3^+ ([1]; Patient ID 2978, control 1): 2 cells/field
- # cells/field PD-L1^+ ([1]; Patient ID 2978, control 1): 1 cells/field
- # cells/field CD8^+ ([1]; Patient ID 2978, control 12): 22 cells/field
- # cells/field PD-1^+ ([1]; Patient ID 2979, control 0): 0 cells/field
- # cells/field FOXP3^+ ([1]; Patient ID 2979, control 2): 3 cells/field
- # cells/field PD-L1^+ ([1]; Patient ID 2979, control 5): 8 cells/field
- # cells/field CD8^+ ([1]; Patient ID 2979, control 25): 10 cells/field
- # cells/field PD-1^+ ([1]; Patient ID 2980, control 0): 0 cells/field
- # cells/field FOXP3^+ ([1]; Patient ID 2980, control 1): 2 cells/field
- # cells/field PD-L1^+ ([1]; Patient ID 2980, control 8): 2 cells/field
- # cells/field CD8^+ ([1]; Patient ID 2980, control 30): 8 cells/field
- # cells/field FOXP3^+ ([1]; Patient ID 2981, control 0): 1 cells/field
- # cells/field PD-1^+ ([1]; Patient ID 2981, control 0): 0 cells/field
- # cells/field PD-L1^+ ([1]; Patient ID 2981, control 0): 0 cells/field
- # cells/field CD8^+ ([1]; Patient ID 2981, control 1): 12 cells/field
- number of PD-1^+ cells in the tumor microbed ([1]; predicted non-responder): no change
- number of PD-1^+ cells in the tumor microbed ([1]; predicted responder, to a greater degree in the case of Nivolumab): increase
- M-score ([2]; Patient ID 2916): 8
- M-score ([2]; Patient ID 2926): 28
- M-score ([2]; Patient ID 2939): 4
- M-score ([2]; Patient ID 2942): 18
- M-score ([2]; Patient ID 2950): 13
- M-score ([2]; Patient ID 2963): 9
- M-score ([2]; Patient ID 2979): 27
- M-score ([2]; Patient ID 2980): 19
- M-score ([3]; Patient ID 2918): 13
- M-score ([3]; Patient ID 2928): 16
- M-score ([3]; Patient ID 2941): 38
- M-score ([3]; Patient ID 2948): 4
- M-score ([3]; Patient ID 2949): 6
- M-score ([3]; Patient ID 2956): 6
- M-score ([3]; Patient ID 2978): 22
- M-score ([3]; Patient ID 2981): 7
